Source: patent publication US8377900B2 (National Research Council of Canada, priority 2003, dated 2013)

Experiments:
[1] = test system: S92G-mutated chimeric λR-GyrB transactivator; assay: Coumermycin-dependent luciferase activity in stable 293A clones (pCUR, S92G transactivator); format: cell-based, Human
Protocol: FIG. 4B. […] Results represent two independent experiments performed in triplicate.
Alternatively, the cells were transfected with PvuI linearized pCUR. Two days following transfection, the cells were replaced into 100 mm dishes, and selected with appropriate antibiotics for 2 weeks. Single clone was selected for further assay. […] After 40 hrs induction, cells were lysed in 100 μl lysis buffer (Promega) for 20 min. Luc activity was determined using 20 μl of total cell lysate using the Dual-Luciferase Reporter Assay System (Promega). The reporter firefly luciferase activities were measured and normalized by the transfection efficiencies estimated by the activities of Renilla luciferase constitutively expressed from cotransfected pRL-TK. For inducible expression of the Bax gene, wild-type K562 cells were transfected using electroporation with 5 μg DNA of the linearized pBax and pGyrB. Cell lines were selected with hygromycin and positive clones were screened in the induced and non-induced states using anti-Bax antibody visualized by Western blot.
Cells were stably transfected with pCUR containing the Luc gene. […] Values are means of three independent luciferase determinations from three independently cell cultures.
The kinetic characteristics of this inducible system were further examined in stable cell lines.

K562-Bax 65 cells = assay: Western blot of Bax expression and cytosolic cytochrome C in clone K562-Bax 65; format: cell-based, Human; details: 5 nM coumermycin, 36 hr
Text: (§1) It has been reported that high-level expression of Bax (Bcl2-associated X protein) elicits apoptosis in a variety of human cancer cells (17). In malignant hematopoietic cells, including k562, Bax overexpression leads to apoptosis of the transfected cells through cytochrome C release (18). To evaluate the tightness of gene expression regulated by the chimeric transactivator, the apoptotic Bax gene was cloned into the transgene-expression cassette from the two-plasmid induction system previously described. […] Stable clones harboring the both plasmids were isolated and characterized following induction.

K562-Bax cells = assay: Flow cytometric analysis of apoptosis (Annexin-V) in K562-Bax cells; format: cell-based, Human; details: 5 nM coumermycin, 36 hr; 6.7% without treatment
Text: as §1

[2] = target: T1, chimeric transactivator λR-GyrB-NFκB (UniProt P03034+P0AES6); assay: Coumermycin-induced reporter (Luc/GFP) expression, transient transfection of 293A cells with wild type transactivator; format: cell-based, Human; details: 5 nM, 40 hr
T1 construct: the GyrB domain (codons 2-220 of bacterial DNA gyrase); expressed in transfected cells; host or cells: human embryonic kidney 293A cells, transient transfection with pGyrB plus reporter plasmid, or with pCUR
Protocol: FIG. 2A. Either two plasmids pGFP and pGyrB (double plasmids, each 0.5 μg), or one plasmid pCUR (1.0 μg) containing the GFP gene (single plasmid), were transiently transfected into 293A cells.
FIG. 2B. Either two plasmids pLuc and pGyrB (DP, each 0.2 μg), or one plasmid pCUR (0.4 μg) containing the Luc gene (SP), were transiently transfected into 293A cells, respectively. […] The results shown are the means for triplicate determinations and representative of 3 experiments. The transfection efficiencies were normalized by co-transfection of pRL-TK vector constitutively producing Renilla luciferase.
Exponentially growing 293A cells were seeded at 8×10^5 in 60 mm dishes the day prior to transfection and co-transfected with 5 μg of XmnI linearized pLuc and 0.2 μg of pcDNA3.1 hygromycin using the SuperFect kit (Qiagen). Alternatively, the cells were transfected with PvuI linearized pCUR. Two days following transfection, the cells were replaced into 100 mm dishes, and selected with appropriate antibiotics for 2 weeks. Single clone was selected for further assay. […] Luc activity was determined using 20 μl of total cell lysate using the Dual-Luciferase Reporter Assay System (Promega). The reporter firefly luciferase activities were measured and normalized by the transfection efficiencies estimated by the activities of Renilla luciferase constitutively expressed from cotransfected pRL-TK. […]

[3] = test system: S92G-mutated chimeric λR-GyrB transactivator; format: cell-based, Human
Text: FIG. 5A. […] Results represent two independent experiments performed in triplicate.
Results shown are the means for triplicate determinations and representative of 3 experiments.

[4] = cited from earlier work
293A cells = format: cell-based, Human; details: 25 μM, cell growth rate and CMV-GFP expression
Protocol: At a concentration of 5 μM novobiocin, however, over 98% of the coumermycin-induced luciferase expression was suppressed (FIG. 5A).

coumermycin
induction time at which appreciable luciferase activity was detected ([1]; 5 nM coumermycin, clone S92G-5): 5 h
induction time for maximal inducibility ([1]; 5 nM coumermycin, clone S92G-5): 24 h
higher doses causing reduced induction of gene expression ([1]; FIG. 4A): > 0.5 µM
concentration at which inducibility was decreased ([1]; clone S92G-5, 40 hr): 50 nM
concentration for maximal induction ([1]; clone S92G-5, 40 hr): 2.5 to 5 nM
lowest concentration giving apparent induction of luciferase expression ([1]; clone S92G-5, 40 hr): approximately 0.5 ng/ml
lowest concentration giving appreciable/apparent induction of gene expression ([1]; clone S92G-5, 40 hr, luciferase): 0.5 nM
Luciferase Activity With Coum ([1]; stable clone 5, coumermycin 5 nM): 47,460 ± 447 Arbitrary Light Units/μg protein
Activation factor ([1]; stable clone 5, with vs without coumermycin 5 nM): 5.1 × 10^3
Luciferase Activity With Coum ([1]; stable clone 8, coumermycin 5 nM): 52,408 ± 2,254 Arbitrary Light Units/μg protein
Activation factor ([1]; stable clone 8, with vs without coumermycin 5 nM): 1.5 × 10^3
Luciferase Activity With Coum ([1]; stable clone 10, coumermycin 5 nM): 1,591 ± 100 Arbitrary Light Units/μg protein
Activation factor ([1]; stable clone 10, with vs without coumermycin 5 nM): 3.2 × 10^3
Luciferase Activity With Coum ([1]; stable clone 18, coumermycin 5 nM): 7,446 ± 36 Arbitrary Light Units/μg protein
Activation factor ([1]; stable clone 18, with vs without coumermycin 5 nM): 5.8 × 10^3
Luciferase Activity With Coum ([1]; stable clone 23, coumermycin 5 nM): 8,237 ± 204 Arbitrary Light Units/μg protein
Activation factor ([1]; stable clone 23, with vs without coumermycin 5 nM): over 10,000
Activation factor ([1]; stable clone 23, with vs without coumermycin 5 nM, listed as Coumermycin): 1.4 × 10^4
Luciferase Activity With Coum ([1]; stable clone 28, coumermycin 5 nM): 12,292 ± 550 Arbitrary Light Units/μg protein
Activation factor ([1]; stable clone 28, with vs without coumermycin 5 nM): 5.1 × 10^3
Luciferase Activity With Coum ([1]; stable clone 34, coumermycin 5 nM): 46,980 ± 1,300 Arbitrary Light Units/μg protein
Activation factor ([1]; stable clone 34, with vs without coumermycin 5 nM): 5.8 × 10^3
Luciferase Activity With Coum ([1]; stable clone 44, coumermycin 5 nM): 30,151 ± 2020 Arbitrary Light Units/μg protein
Activation factor ([1]; stable clone 44, with vs without coumermycin 5 nM): over 10,000
Activation factor ([1]; stable clone 44, with vs without coumermycin 5 nM, listed as Coumermycin): 1.3 × 10^4
Luciferase Activity With Coum ([1]; stable clone 45, coumermycin 5 nM): 1,909 ± 24 Arbitrary Light Units/μg protein
Activation factor ([1]; stable clone 45, with vs without coumermycin 5 nM): 1.6 × 10^3
Luciferase Activity With Coum ([1]; stable clone 47, coumermycin 5 nM): 8,528 ± 43 Arbitrary Light Units/μg protein
Activation factor ([1]; stable clone 47, with vs without coumermycin 5 nM): 2.1 × 10^3
Bax expression (Western blot) (K562-Bax 65 cells): greatly induced
cytochrome c release from mitochondria (Western blot) (K562-Bax 65 cells): released in substantial amounts
fraction of apoptotic cells (K562-Bax cells): 45.5%
GFP expression ([2]; both plasmid systems): greatly induced
induction of luciferase activity ([2]; wild type λR, double- and single-plasmid cassettes): around 50 fold

CO[C@@H]1[C@@H](OC(N)=O)[C@@H](O)[C@H](Oc2ccc3c(O)c(NC(=O)c4ccc(O)c(CC=C(C)C)c4)c(=O)oc3c2C)OC1(C)C [novobiocin]
extent of switch-off of coumermycin-induced luciferase expression ([3]; 2.5 μM novobiocin added after 11 hr induction with 5 nM coumermycin): nearly completely switched off
suppression of coumermycin-induced luciferase expression ([3]; 5 μM novobiocin with 5 nM coumermycin, 40 hr): over 98%
in vivo half-life [4]: 6 h
serum half-life ([4]; serum, in vivo): 6 h
cellular toxicity (293A cells): do not exert any detectable cellular toxicity
